# Results as given in patent US20260124170A1, “PHARMACEUTICAL COMPOSITION COMPRISING METABOLITE OF ENAVOGLIFLOZIN, AND USE THEREOF” (DAEWOONG PHARMACEUTICAL CO., LTD., priority 2022, published 2026).
# Several values for one entry are separate records, joined by “and”; a condition that tells them apart may be missing. Identical values can stand only once. Like-named read-outs stand apart in the source and are kept apart here.
# Assays:
# SGLT1 [1] = target: T1, SGLT1 (Homo sapiens, UniProt P13866); test: SGLT1 inhibition with varied substrate AMG concentration (Dixon / L-B plot); assay type: cell-based; details: for Inhibition mechanism, SGLT1: CHO-SGLT1, varied AMG concentration; for Ki: from slope of L-B plot, CHO-SGLT1
# T1 construct: expressed in transfected cells
# T1 sequence (P13866 1-664): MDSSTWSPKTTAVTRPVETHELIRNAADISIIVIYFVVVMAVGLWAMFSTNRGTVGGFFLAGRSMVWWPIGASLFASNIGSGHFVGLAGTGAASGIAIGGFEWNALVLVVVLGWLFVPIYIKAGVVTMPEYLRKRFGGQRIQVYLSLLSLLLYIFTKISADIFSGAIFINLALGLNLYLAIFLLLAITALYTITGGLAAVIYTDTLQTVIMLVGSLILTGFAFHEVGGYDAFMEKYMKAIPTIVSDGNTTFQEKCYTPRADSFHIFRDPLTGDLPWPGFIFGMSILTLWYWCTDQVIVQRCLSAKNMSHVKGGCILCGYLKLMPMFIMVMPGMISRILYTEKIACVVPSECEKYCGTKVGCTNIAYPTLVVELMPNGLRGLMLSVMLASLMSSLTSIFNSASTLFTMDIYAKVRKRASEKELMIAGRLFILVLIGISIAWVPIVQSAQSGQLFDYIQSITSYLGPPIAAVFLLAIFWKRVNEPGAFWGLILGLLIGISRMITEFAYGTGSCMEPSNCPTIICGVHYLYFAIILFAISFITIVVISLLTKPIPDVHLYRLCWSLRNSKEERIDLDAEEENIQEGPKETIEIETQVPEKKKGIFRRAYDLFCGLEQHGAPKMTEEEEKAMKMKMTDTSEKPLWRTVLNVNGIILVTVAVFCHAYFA
# Procedure: From these, the inhibition mechanism was confirmed, and the inhibition constant was calculated.
# SGLT1 [2] = target: T1, SGLT1; test: Whole-cell patch clamp glucose current, binding and dissociation, CHO-SGLT1; assay type: cell-based; details: for Dissociation degree T1/2, off (s), SGLT1: washout
# Procedure: When SGLT1- and SGLT2-overexpressing cell lines (CHO-SGLT1, CHO-SGLT2 stable cells) were cultured to reach 60% confluency, the cells were treated with 0.05% trypsin to detach the cells from the bottom of the plate, suspended in 200 μL of culture medium, and used at room temperature.
# Glucose reabsorption is induced by the Na^+ electrochemical potential gradient in the kidneys via SGLT2, and glucose diffuses across the cell membrane into the blood via glucose transporter 2 (GLUT-2), which enables facilitated glucose transport. While one Na^+ ion is absorbed per glucose molecule through SGLT2, two Nations are absorbed per glucose molecule through SGLT1. Therefore, by varying the composition of the buffer, only the glucose current was recorded, excluding the Na^+ current.
# The experiment was conducted as described below.
# 1) Using a Narishige puller, a glass micropipette was made in two stages of 62.7° C. and 57° C., filled with an internal solution (145 mM CsCl, 5 mM NaCl, 10 mM HEPES, 11 mM ethylene glycol-bis(2-aminoethylether)-N,N,N′,N′-tetraacetic acid (EGTA), pH 7.2), and then inserted into the Ag/AgCl2 electrode of the patch clamp head-stage.
# 2) SGLT1 or SGLT2 cells were seeded on a chamber which was coated with poly-L-lysine in advance, and then an external solution (150 mM NaCl, 10 mM HEPES, 1 mM CaCl2), 1 mM MgCl2, pH 7.4) was flowed to ensure that the cells were sufficiently submerged. A temperature control device was used to maintain the temperature of the chamber at 36.5±0.5° C.
# 3) Using a micromanipulator, the glass micropipette was attached to the cell membrane to create a giga-ohm seal, which was then ruptured to detach the cell membrane (whole-cell mode, 3 to 5 MΩ).
# 4) The cells were fixed at −60 mV (holding potential), and the current [I^total current (Na^+/Glucose current (pA))] was measured in a gap-free data acquisition mode.
# 5) The external solution was continuously flowed into the chamber containing the cells, and the current (I^total) was recorded for about 30 seconds to 1 minute (stabilization), and then the external solution with added glucose (Na^+/Glucose external) (150 mM NaCl, 10 mM HEPES, 1 mM CaCl2), 1 mM MgCl2, 100 mM glucose, pH 7.4) was flowed to record the glucose current (I^glucose). Then, the cells were exposed to the external solution with added glucose containing one concentration of the compound for two minutes, and the glucose current suppressed by the compound was recorded.
# 7) After confirming the recovery of the current, the solution was replaced with a sodium-free external solution (Na^+-free external) (150 mM Choline-Cl, 1 mM CaCl2), 1 mM MgCl2, pH 7.4) and the Na^+ current was recorded. After the current was stabilized, the solution was replaced with the external solution to record the current in the resting state when the cells were not stimulated, thereby securing the reliability of the experimental system.
# For statistical analysis of data, pCLAMP10.4 (Molecular Devices, LLC, San Jose, CA, USA) or Origin6.0 (OriginLab, Northampton, MA, USA) was used.
# The test results were expressed as the mean±SD of the mean. Statistical significance was verified using the nonparametric Kruskal-Wallis test using Statistical Package for the Social Sciences (SPSS) for Windows (version 26.0, IBM Corp., Armonk, NY, USA). The significance level was set at p<0.05.
# SGLT2 = target: T2, SGLT2 (Homo sapiens, UniProt P31639); test: Change in SGLT2 inhibition according to drug pretreatment time (CHO-SGLT2); assay type: cell-based; details: for IC50: CHO-SGLT2; for Change in SGLT2 inhibition as exposure time increased: pretreatment 0, 1, 2 h, one-way ANOVA
# T2 construct: expressed in transfected cells
# T2 sequence (P31639 1-672): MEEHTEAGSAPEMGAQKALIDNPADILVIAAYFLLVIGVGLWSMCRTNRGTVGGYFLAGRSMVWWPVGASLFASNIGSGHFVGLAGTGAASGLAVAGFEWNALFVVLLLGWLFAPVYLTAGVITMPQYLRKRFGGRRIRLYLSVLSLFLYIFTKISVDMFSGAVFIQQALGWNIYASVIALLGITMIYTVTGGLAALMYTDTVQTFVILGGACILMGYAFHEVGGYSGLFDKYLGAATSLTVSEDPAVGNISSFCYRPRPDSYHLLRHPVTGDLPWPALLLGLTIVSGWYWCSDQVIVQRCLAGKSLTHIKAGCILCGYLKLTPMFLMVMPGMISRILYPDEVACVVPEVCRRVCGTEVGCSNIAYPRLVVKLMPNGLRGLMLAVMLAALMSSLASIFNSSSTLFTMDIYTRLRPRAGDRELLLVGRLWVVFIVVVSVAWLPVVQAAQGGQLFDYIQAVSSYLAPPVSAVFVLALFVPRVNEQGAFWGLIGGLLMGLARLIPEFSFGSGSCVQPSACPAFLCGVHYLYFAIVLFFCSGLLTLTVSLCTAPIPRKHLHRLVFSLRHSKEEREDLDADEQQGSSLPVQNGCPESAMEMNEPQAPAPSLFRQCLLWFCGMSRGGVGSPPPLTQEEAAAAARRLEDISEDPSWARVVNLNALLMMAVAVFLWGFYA
# Description: All data values are expressed as the mean±SD of […].
# human hepatocytes = details: cited from earlier work
# [3] = IC50 according to pretreatment time (nM), SGLT2, 1 h, 1 h pretreatment in sodium-free buffer
# [4] = IC50 according to pretreatment time (nM), SGLT2, 2 h, 2 h pretreatment in sodium-free buffer
# [5] = no pretreatment, read-out: IC50 according to pretreatment time (nM), SGLT2, 0 h
SMILES,"Inhibition mechanism, SGLT1 (SGLT1 [1])",Ki (SGLT1 [1]),"Binding affinity T1/2, on (s), SGLT1 (SGLT1 [2]; treatment concentration 20 μM)","Dissociation degree T1/2, off (s), SGLT1 (SGLT1 [2]; treatment concentration 20 μM)",IC50 (SGLT2; [3]),IC50 (SGLT2; [4]),IC50 (SGLT2; [5]),Change in SGLT2 inhibition as exposure time increased (SGLT2),Enzymes catalyzing formation of the metabolite (human hepatocytes),"Binding affinity T1/2, on (s), SGLT1 (SGLT1 [2]; treatment concentration 5 μM)","Dissociation degree T1/2, off (s), SGLT1 (SGLT1 [2]; treatment concentration 5 μM)","Dissociation degree T1/2, off (s), SGLT1 (SGLT1 [2]; treatment concentration 5 μM, listed as enavogliflozin)","Number of metabolites produced in human hepatocytes (human hepatocytes; M1, M2, M3, U1, U2)","Dissociation from SGLT1, times slower than dapagliflozin (SGLT1 [2]; ratio of T1/2,off)","Dissociation from SGLT1, times slower than enavogliflozin (SGLT1 [2]; ratio of T1/2,off)"
"OC[C@H]1O[C@@H](c2cc(Cc3ccc(C4(O)CC4)cc3)c(Cl)c3c2CCO3)[C@H](O)[C@@H](O)[C@@H]1O [M2, (2S,3R,4R,5S,6R)-2-(7-chloro-6-(4-(1-hydroxycyclopropyl)benzyl)-2,3-dihydrobenzofuran-4-yl)-6-(hydroxymethyl)tetrahydro-2H-pyran-3,4,5-triol]",Competitive inhibition,1870 nM,15.7 ± 6.5 s,23.5 s and 23.5 ± 10.4 s,3.63 ± 0.83 nM,3.24 ± 0.81 nM,2.75 ± 0.36 nM,did not increase or significantly change,CYP3A4 and CYP2C19,,,,,,
"OC[C@H]1O[C@@H](c2cc(Cc3ccc(C4CC4)cc3)c(Cl)c3c2CCO3)[C@H](O)[C@@H](O)[C@@H]1O [Enavogliflozin, (2S,3R,4R,5S,6R)-2-(7-chloro-6 (4-cyclopropylbenzyl)-2,3-dihydrobenzofuran-4-yl)-6-(hydroxymethyl)tetrahydro-2H-pyran-3,4,5-triol]",Competitive inhibition,495 nM,,,0.285 ± 0.188 nM,0.519 ± 0.222 nM,0.388 ± 0.119 nM,did not increase or significantly change,,11.5 ± 4.2 s,34.9 ± 9.6 s,34.9 s,five,,
"OC[C@H]1O[C@@H](c2cc(Cc3ccc(C4CC4)cc3)c(Cl)c3c2CC(O)O3)[C@H](O)[C@@H](O)[C@@H]1O (stereo partly drawn) [M1, (2S,3R,4R,5S,6R)-2-(7-chloro-6-(4-cyclopropylbenzyl)-2-hydroxy-2,3-dihydrobenzofuran-4-yl)-6-(hydroxymethyl)tetrahydro-2H-pyran-3,4,5-triol]",Competitive inhibition,84.8 nM,,,5.24 ± 1.1 nM,9.95 ± 3.14 nM,8.44 ± 0.77 nM,did not increase or significantly change,CYP3A4 and CYP2C19,18.8 ± 4.1 s,"59.8 s and 59.8 ± 11.5*^, + s",,,1.96 times,1.7 times
